These results are taken from PubChem BioAssay AID624167 (Sanford-Burnham Center for Chemical Genomics, 2012).

For assay [1], the target named is PEG-3 (UniProt Q6IN02). In words: inhibition of PEG-3 promoter-driven reporter – cell-based, HeLa, luciferase, CREF/GAPDH counter-screen panel, dose response (AID 624167). Conditions: HeLa PEG-Prom luciferase reporter, overnight, CREF/GAPDH counter-screens, mean of runs. Background: A counterscreen serves to expose hits that act by an unwanted route or on another target.
PEG-3 (UniProt Q6IN02), sequence (Q6IN02 whole entry, looked up): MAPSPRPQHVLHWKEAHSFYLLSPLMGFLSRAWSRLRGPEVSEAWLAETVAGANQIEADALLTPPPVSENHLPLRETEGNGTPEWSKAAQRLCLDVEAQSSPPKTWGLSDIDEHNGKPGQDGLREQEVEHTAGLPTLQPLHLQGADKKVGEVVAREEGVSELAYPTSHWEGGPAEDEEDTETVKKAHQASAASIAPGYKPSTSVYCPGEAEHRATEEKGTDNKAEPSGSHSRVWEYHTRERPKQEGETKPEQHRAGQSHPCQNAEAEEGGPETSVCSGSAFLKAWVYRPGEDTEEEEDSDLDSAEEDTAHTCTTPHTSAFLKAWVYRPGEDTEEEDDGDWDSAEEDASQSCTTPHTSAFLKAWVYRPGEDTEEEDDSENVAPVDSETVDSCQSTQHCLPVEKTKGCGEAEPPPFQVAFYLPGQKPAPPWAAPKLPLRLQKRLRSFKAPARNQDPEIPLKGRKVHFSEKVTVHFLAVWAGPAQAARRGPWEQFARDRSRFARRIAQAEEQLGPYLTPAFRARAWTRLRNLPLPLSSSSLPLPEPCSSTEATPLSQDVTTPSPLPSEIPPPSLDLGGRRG

The subject of assay [2] is PEG-3. The assay is described as above. To be noted: HeLa PEG-Prom luciferase reporter, overnight, CREF/GAPDH counter-screens. In general terms: A reporter such as luciferase makes a cellular process visible.
Where [3] appears, read: run 1, dose range 1, individual replicate IC50 per panel.
Where [4] appears, read: run 2, dose range 1, individual replicate IC50 per panel.

Active and inactive are the calls of the source.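 How the source made its calls: active means mean IC50 for reducing PEG3 promoter reporter signal at or below a set limit, with IC50 above the limit in both counter screens; inactive means the rest, including counter screen hits.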 Where only a bound is given, the exact number is not on record here.

In general, IC50 refers to the concentration needed to halve the response being measured. Take `CN1Cc2c(N3CCOCC3)nc3sc(C(=O)c4ccc(Br)cc4)c(N)c3c2CC1(C)C`: the concentration for half-maximal inhibition (IC50) in assay [1] is 15.2 µM; in assay [2] (setting [3]), 18.8 µM; in assay [2] (setting [4]), 11.6 µM.
Taken in the same sequence, the figures for `NC(N)=N/N=C/c1ccc(Cl)cc1Cl` were “inactive”, 23.6 µM and 17.6 µM.
Taken in the same sequence, the figures for `COc1ccc(C(c2nnnn2-c2c(C)cccc2C)N2CCC(n3c(=O)[nH]c4ccccc43)CC2)cc1` (stereo unspecified) were 11.3 µM, 11.4 µM and 11.3 µM.
Turning to `N#Cc1c(N)nc(SCc2ccncc2)c(C#N)c1-c1cccs1`, the concentration for half-maximal inhibition (IC50) was 17.1 µM in assay [1], 21.4 µM in assay [2] (setting [3]) and 12.8 µM in assay [2] (setting [4]).
Consider `CCN(CC)CCNC(=O)c1ccc(NC(=O)c2cccc(S(=O)(=O)N(C)C3CCCCC3)c2)cc1`, for which the IC50 result in assay [1] is “inactive”. Besides, the IC50 in assay [2] (setting [3]) was 29.1 µM; in assay [2] (setting [4]), 25.6 µM.
Take `CC(C)CC(N)c1csc(Nc2ccc(C(=O)c3ccccc3)cc2)n1` (stereo unspecified): the IC50 entry in assay [1] was “inactive”. Moreover, the IC50 in assay [2] (setting [3]) worked out at 31.1 µM; in assay [2] (setting [4]), 29.8 µM.
With `CCCCCCSc1cc(-c2nc3ccc(C)cn3c2NCCCC)ccc1OC`, the values for the IC50 in assay [1], in assay [2] (setting [3]) and in assay [2] (setting [4]) were 16.2 µM, 21.4 µM and 11 µM, respectively.
Taken in the same sequence, the figures for `Cn1cccc1/C=C1/C(=O)NC(=S)N(Cc2ccc(F)cc2)C1=O` were “inactive”, 31.9 µM and 38.1 µM.
Taken in the same sequence, the figures for `c1ccc(-c2cc(-c3ccccc3)[n+](-c3ccccc3)c(-c3ccccc3)c2)cc1` were 12.3 µM, 10.7 µM and 13.9 µM.
Taken in the same sequence, the figures for `COc1ccc(CNC(=O)Nc2nc(C(N)Cc3ccc(F)cc3)cs2)cc1` (stereo unspecified) were 14.6 µM, 16.6 µM and 12.5 µM.
With `CC(NNC(=S)N1CCN(c2ccccn2)CC1)c1nccc2ccccc12` (stereo unspecified), the IC50 entry in assay [1] was “inactive”. Also, the concentration for half-maximal inhibition (IC50) in assay [2] (setting [3]) was found to be 15.2 µM; in assay [2] (setting [4]), 36 µM.
In the case of `COc1cccc2c1C(=N)c1c(O)c3c(c(O)c1C2=O)CC(O)(C(C)=O)CC3OC1CC(N)C(O)C(C)O1` (stereo unspecified), the IC50 in assay [1] is 11.6 µM; in assay [2] (setting [3]), 15.7 µM; in assay [2] (setting [4]), 7.56 µM.
Taken in the same sequence, the figures for `COc1cccc(/C=N/NC(=O)c2c(-c3ccccc3)noc2C)c1O` were “inactive”, 42.2 µM and more than 100 µM.
Taken in the same sequence, the figures for `COc1ccc(C[C@H]2CN3C(=NC[C@@H]3Cc3ccc(O)cc3)N2C[C@H](C)NC(=O)c2ccc(C)c(Br)c2)cc1` were “inactive”, 22.7 µM and 20.8 µM.
`O=C1NC(Cc2ccc(O)cc2)c2nc3ccc(F)cc3c(=O)n2-c2cc3ccccc3cc21` (stereo unspecified): in assay [1], the IC50 entry was “inactive”. The half-maximal inhibitory concentration (IC50) was 19.9 µM in assay [2] (setting [3]) and 34.4 µM in assay [2] (setting [4]).
As for `CCCCCCCCNCCS(=O)(=O)NCc1ccc(OC)cc1`, the IC50 is 18 µM in assay [1], 17.7 µM in assay [2] (setting [3]) and 18.3 µM in assay [2] (setting [4]).
Consider `COc1cc(OC)c(OC)cc1CCC(C)NCCC(c1ccccc1)c1ccccc1` (stereo unspecified), for which the IC50 in assay [1] was 18.4 µM; in assay [2] (setting [3]), 20.3 µM; in assay [2] (setting [4]) it was 16.5 µM.
Taken in the same sequence, the figures for `CC(C)NC(=O)NC(=O)COC(=O)c1c2c(nc3ccccc13)CCC2` were “inactive”, 16.5 µM and 27.8 µM.
Taken in the same sequence, the figures for `COC(=O)c1ccc(CNC(=O)Cn2cnc3c(NCc4ccccc4)ncnc32)cc1` were “inactive”, 29.6 µM and 15.5 µM.
Taken in the same sequence, the figures for `OCCN1CCN(C2CCC(c3ccc(F)cc3)c3ccc(F)cc32)CC1` (stereo unspecified) were “inactive”, 20.4 µM and 23 µM.
Consider `COc1ccc(CNCCC(c2ccccc2)c2ccc(OC(C)C)cc2)cc1OC` (stereo unspecified), for which the IC50 in assay [1] was 18.8 µM; in assay [2] (setting [3]), 18.1 µM; in assay [2] (setting [4]) it was 19.5 µM.
Consider `COc1ccc2c(c1)C=C([C@@H]1C[C@H]3CN(c4ccccc4)C(=O)[C@]34CCCN14)CO2`, for which the IC50 in assay [1] was > 100 µM (inactive); in assay [2] (setting [3]), more than 100 µM; in assay [2] (setting [4]), more than 100 µM.
Take `CCC(=C(c1ccc(OC)cc1)c1ccc(OC)cc1)c1cn(CC(O)CN2CCN(C)CC2)c2ccccc12` (stereo unspecified): the concentration for half-maximal inhibition (IC50) in assay [1] is 15.7 µM; in assay [2] (setting [3]), 18.9 µM; in assay [2] (setting [4]), 12.5 µM.
Taken in the same sequence, the figures for `O=S(=O)(N[C@H]1C[C@@H](NS(=O)(=O)OCC(Cl)(Cl)Cl)C2CCCCC21)OCC(Cl)(Cl)Cl` (stereo partly specified) were 12.5 µM, 15.1 µM and 9.83 µM.
Taken in the same sequence, the figures for `COc1cccc(-c2nnc3n2N=C(C(C)(C)C)CS3)c1` were 17.8 µM, 14.1 µM and 21.5 µM.
Taken in the same sequence, the figures for `O=C(Nc1ccccc1)NN(C(=O)CCl)c1ccccc1` were 16.7 µM, 20.1 µM and 13.3 µM.
Consider `Cc1c(C(=O)N2CCC3(CC2)OCCO3)sc2ncnc(N3CCN(c4ccccn4)CC3)c12`, for which the IC50 result in assay [1] is “inactive”. In addition, the 50% inhibitory concentration (IC50) stood at 24 µM in assay [2] (setting [3]) and 29 µM in assay [2] (setting [4]).
Taken in the same sequence, the figures for `CN1CCC(NC(=O)c2cc(-c3cccc(Br)c3)nc3ccccc23)CC1` were 18 µM, 20.9 µM and 15.1 µM.
On to `CC1CCCCN1S(=O)(=O)c1ccc(C(=O)N(CCCN(C)C)c2nc3ccc(Br)cc3s2)cc1` (stereo unspecified), for which the IC50 in assay [1] was 15 µM; in assay [2] (setting [3]) it was 19.1 µM; in assay [2] (setting [4]), 10.9 µM.
Regarding `COc1cc2c(cc1OC)CN(c1nc(-c3cccnc3)nc3ccccc13)CC2`, the IC50 entry in assay [1] is “inactive”. In addition, the IC50 in assay [2] (setting [3]) came to 31.3 µM; in assay [2] (setting [4]), 63.8 µM.
Taken in the same sequence, the figures for `Cc1ccc2[nH]c3c(c2c1)CCCC3NC(=O)CCl` (stereo unspecified) were “inactive”, 23.3 µM and 49.8 µM.
Taken in the same sequence, the figures for `O=Cc1cn(Cc2ccc(F)cc2)c2ccccc12` were 18.3 µM, 12.5 µM and 24.1 µM.
Taken in the same sequence, the figures for `Oc1c(Cl)cc(Cl)c2cccnc12` were 12.3 µM, 17.9 µM and 6.75 µM.
As to `O=S(=O)(Nc1cccc2cccnc12)c1ccccc1`, the IC50 result in assay [1] is “inactive”. The IC50 in assay [2] (setting [3]) is more than 100 µM; in assay [2] (setting [4]) it was 7.43 µM.
Taken in the same sequence, the figures for `CC(C)n1nc(C(=O)Oc2cc(Cl)ccc2Cl)c2ccccc2c1=O` were “inactive”, 65.8 µM and more than 100 µM.
`O=C(Nc1ccc(-c2nc3ccccc3o2)cc1)c1ccc(N2CCOCC2)c([N+](=O)[O-])c1`: the values for the IC50 in assay [1], in assay [2] (setting [3]) and in assay [2] (setting [4]) were > 100 µM (inactive), more than 100 µM and more than 100 µM, respectively.
As for `CC(=O)Nc1cccc(NC(=O)c2cc(-c3cccnc3)nc3ccc(Cl)cc23)c1`, in assay [1], the IC50 result was “inactive”. Also, the half-maximal inhibitory concentration (IC50) is 50.2 µM in assay [2] (setting [3]) and 59.2 µM in assay [2] (setting [4]).
Taken in the same sequence, the figures for `COc1cccc(CN(C)C(=O)C(CCSC)NS(=O)(=O)c2ccc3c(c2)OCCO3)c1OC` (stereo unspecified) were “inactive”, 61 µM and 8.89 µM.
With `CC1(C)CC(NC(=O)c2sc3cc(Cl)ccc3c2Cl)CC(C)(C)N1`, the figures for the IC50 in assay [1], in assay [2] (setting [3]) and in assay [2] (setting [4]) were 18.1 µM, 20.7 µM and 15.6 µM, respectively.
Taken in the same sequence, the figures for `Oc1ccc(C23CCCC2C2(CCCC2)c2ccc(O)cc2O3)c(O)c1` (stereo unspecified) were “inactive”, 27.2 µM and 54.4 µM.
As to `COc1ccc(OC)c(Cc2cnc3nc(N)nc(N)c3c2C)c1`, the IC50 result in assay [1] was “inactive”. For the same compound, the 50% inhibitory concentration (IC50) is 48.7 µM in assay [2] (setting [3]) and 1.36 µM in assay [2] (setting [4]).
Turning to `O=C(CN1CCN(Cc2ccccc2Cl)CC1)N=Nc1c(O)[nH]c2ccccc12`, in assay [1], the IC50 result was “inactive”. The figures for the IC50 in assay [2] (setting [3]) and in assay [2] (setting [4]) were 5.23 µM and more than 100 µM, respectively.
Taken in the same sequence, the figures for `Cc1ccc(S(=O)(=O)CCSC(=N)N)cc1` were “inactive”, 36.6 µM and 42.7 µM.
For the compound `CCN(CC)CCOc1ccc(/C(=C(/Cl)c2ccccc2)c2ccccc2)cc1`, the 50% inhibitory concentration (IC50) is 17 µM in assay [1], 22.4 µM in assay [2] (setting [3]) and 11.6 µM in assay [2] (setting [4]).
On to `CN(C)S(=O)(=O)c1cccc(NC(=O)CSc2nc3c(cc2C#N)C(=O)CC(C)(C)C3)c1`, for which the IC50 entry in assay [1] is “inactive”. Also, the figures for the IC50 in assay [2] (setting [3]) and in assay [2] (setting [4]) were 21.6 µM and 19.6 µM, respectively.
As to `COc1ccccc1NC(=O)c1cc(-c2cc(OC)c(OC)c(OC)c2)nc2ccccc12`, the figures for the IC50 in assay [1], in assay [2] (setting [3]) and in assay [2] (setting [4]) were 15.2 µM, 27.3 µM and 3.16 µM, respectively.
Taken in the same sequence, the figures for `COc1ccc(-c2cc(C(=O)N3CCN(c4ncccn4)CC3)c3ccccc3n2)c(OC)c1` were “inactive”, 39.3 µM and 98.5 µM.
Take `Cc1cccc(N=C2Sc3nc4c(C)c(C)ccc4cc3CN2CCN2CCOCC2)c1`: the IC50 result in assay [1] was “inactive”. The 50% inhibitory concentration (IC50) stood at 29.3 µM in assay [2] (setting [3]) and 32 µM in assay [2] (setting [4]).
Taken in the same sequence, the figures for `CC(C)(C)C(=O)Nc1cc2nn(-c3ccccc3)nc2cc1Cl` were 12.2 µM, 10.9 µM and 13.5 µM.
For the compound `CCCN(CC(=O)Nc1cc(Cl)cc(Cl)c1)CC(=O)Nc1ccc(F)c(F)c1F`, in assay [1], the IC50 entry is “inactive”. In addition, the IC50 stood at 14.6 µM in assay [2] (setting [3]) and 43.7 µM in assay [2] (setting [4]).
Take `Cc1cccc(CN2C(=O)/C(=C\c3ccc(C(=O)NCCN4CCOCC4)cc3)Sc3ccccc32)c1`: the IC50 entry in assay [1] is “inactive”. The results for the half-maximal inhibitory concentration (IC50) in assay [2] (setting [3]) and in assay [2] (setting [4]) were 18.2 µM and 22.1 µM, respectively.
As to `O=C(Nc1cccc(-c2cccc(Cl)c2)c1)C1CCN(C2CCC2)CC1`, the IC50 in assay [1] is 16.9 µM; in assay [2] (setting [3]), 18.9 µM; in assay [2] (setting [4]), 14.9 µM.
